From ChEMBL document CHEMBL3751720, “Investigating molecular dynamics-guided lead optimization of EGFR inhibitors” (Bioorg Med Chem, 2016) come the findings set out here.

In this assay the target is Epidermal growth factor receptor (Homo sapiens) (UniProt P00533). The experiment in a line: Inhibition of wild-type EGFR (unknown origin) assessed as enzyme residual activity at 10 uM for 60 mins by microplate scintillation counter in presence of [gamma-33P]-ATP.
Sequence of Epidermal growth factor receptor (Homo sapiens) (P00533 whole entry): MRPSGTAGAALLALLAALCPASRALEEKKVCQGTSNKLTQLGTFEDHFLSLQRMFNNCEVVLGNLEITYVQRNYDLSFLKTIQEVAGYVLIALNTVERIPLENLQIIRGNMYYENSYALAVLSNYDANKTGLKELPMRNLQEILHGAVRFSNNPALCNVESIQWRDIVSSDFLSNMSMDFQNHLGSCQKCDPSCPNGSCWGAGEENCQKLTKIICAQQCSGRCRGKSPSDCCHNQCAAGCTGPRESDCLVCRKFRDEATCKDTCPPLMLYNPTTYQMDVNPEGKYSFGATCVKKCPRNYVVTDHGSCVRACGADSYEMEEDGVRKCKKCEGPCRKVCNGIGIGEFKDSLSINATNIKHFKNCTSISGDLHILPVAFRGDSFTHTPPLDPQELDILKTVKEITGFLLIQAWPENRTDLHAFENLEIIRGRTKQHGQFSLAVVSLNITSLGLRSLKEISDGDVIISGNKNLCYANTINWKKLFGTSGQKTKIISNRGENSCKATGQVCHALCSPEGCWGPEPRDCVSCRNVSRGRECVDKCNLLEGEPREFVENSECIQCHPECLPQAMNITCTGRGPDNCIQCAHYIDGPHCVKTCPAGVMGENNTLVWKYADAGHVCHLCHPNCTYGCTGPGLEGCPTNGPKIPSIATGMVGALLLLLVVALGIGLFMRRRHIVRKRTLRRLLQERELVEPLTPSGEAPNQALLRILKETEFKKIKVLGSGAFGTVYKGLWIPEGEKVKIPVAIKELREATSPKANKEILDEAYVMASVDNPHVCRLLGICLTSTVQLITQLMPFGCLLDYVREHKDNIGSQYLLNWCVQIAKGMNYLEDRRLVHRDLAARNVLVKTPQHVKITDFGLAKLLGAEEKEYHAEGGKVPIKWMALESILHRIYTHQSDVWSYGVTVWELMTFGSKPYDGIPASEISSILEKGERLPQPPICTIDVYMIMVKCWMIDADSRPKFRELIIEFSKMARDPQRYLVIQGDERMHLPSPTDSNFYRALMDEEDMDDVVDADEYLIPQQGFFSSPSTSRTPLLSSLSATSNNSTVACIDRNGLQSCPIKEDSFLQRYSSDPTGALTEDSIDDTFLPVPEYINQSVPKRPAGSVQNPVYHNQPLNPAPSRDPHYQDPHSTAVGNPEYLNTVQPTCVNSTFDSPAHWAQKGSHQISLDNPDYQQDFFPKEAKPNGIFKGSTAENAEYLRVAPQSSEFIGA
Regarding `Cn1c(=O)c(-c2c(F)cccc2C(F)(F)F)cc2c(N)nc(Nc3ccccc3)nc21`, the Activity came to 61%. On to `Cn1c(=O)c(-c2ccccc2)cc2c(N)nc(Nc3ccccc3)nc21`, for which the Activity was 49%. For `Cn1c(=O)c(-c2c(Cl)cccc2Cl)cc2c(N)nc(Nc3ccccc3)nc21` the value was 14%; for `Cn1c(=O)c(-c2c(Br)cccc2Br)cc2c(N)nc(Nc3ccccc3)nc21`, 3%.
